Assay results published in the supplement of paper PMC4862054.

Assays:
Settings in all cases: incubation time: 72 h
[1] = test system: BT-474; test: normalised viability (% of control), CellTiter-Blue; higher = more viable cells (about 100 = DMSO control)
Outline: (§1)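 After 72 h on compound-loaded 384-well plates, breast cancer cell lines received 2.5 µl CellTiter-Blue reagent for 2 h at 37 °C. Fluorescence at 560/590 nm was scaled per plate so that vehicle was 100 and a positive kill control was 0. The value stands for normalised viability at a single listed concentration of the series.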

[2] = test system: BT-549; test: as above
Outline: as §1

[3] = test system: CAL-120; test: as above
Outline: as §1

[4] = test system: CAL-148; test: as above
Outline: as §1

[5] = test system: CAL-51; test: as above
Outline: as §1

[6] = test system: CAL-85-1; test: as above
Outline: as §1

[7] = test system: DU-4475; test: as above
Outline: as §1

[8] = test system: HCC1143; test: as above
Outline: as §1

[9] = test system: HCC1599; test: as above
Outline: as §1

[10] = test system: HDQ-P1; test: as above
Outline: as §1

[11] = test system: Hs578T; test: as above
Outline: as §1

[12] = test system: MDA-MB-231; test: as above
Outline: as §1

[13] = test system: MDA-MB-453; test: as above
Outline: as §1

[14] = test system: MDA-MB-468; test: as above
Outline: as §1

[15] = test system: MFM-223; test: as above
Outline: as §1

[16] = test system: SK-BR-3; test: as above
Outline: as §1

[17] = test system: HCC1599; test: drug sensitivity score (DSS), CellTiter-Glo (DSS (AUC-based score)); higher = stronger drug effect (viability inhibition or cytotoxicity); extreme values may be limits of the assay
Outline: (§2)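 Breast cancer cells were seeded into 384-well plates containing compound at 5 concentrations in 10-fold steps over a compound-specific 10,000-fold range and incubated 72 h. After CellTox Green and CellTiter-Glo readings, each plate was normalised to 0.1 % DMSO and a positive kill control. The drug sensitivity score rests on the area under the fitted dose-response curve.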

[18] = test system: HCC1937; test: as above
Outline: as §2

[19] = test system: HDQ-P1; test: as above
Outline: as §2

[20] = test system: Hs578T; test: as above
Outline: as §2

[21] = test system: MDA-MB-231; test: as above
Outline: as §2

[22] = test system: MDA-MB-436; test: as above
Outline: as §2

[23] = test system: MDA-MB-468; test: as above
Outline: as §2

[24] = test system: MFM-223; test: as above
Outline: as §2

CC(=O)O[C@H]1C(=O)[C@@]2(C)[C@H]([C@H](OC(=O)c3ccccc3)[C@]3(O)C[C@H](OC(=O)[C@H](O)[C@@H](NC(=O)c4ccccc4)c4ccccc4)C(C)=C1C3(C)C)[C@]1(OC(C)=O)CO[C@@H]1C[C@@H]2O [Paclitaxel]
normalised viability [%]
Settings	0.3 nM	1 nM	3 nM	10 nM	100 nM	1000 nM
[1]	–	106	–	–	25.2	27.7
[2]	–	83.7	–	–	21.1	20.4
[3]	–	89.7	–	–	23.6	22.7
[4]	106	–	72.6	51.2	–	–
[5]	95.1	–	82.9	57.9	–	–
[6]	99.5	–	76.9	62.2	–	–
[7]	108	–	95.5	64.8	–	–
[8]	–	104	–	–	34.5	32.5
[9]	–	113	–	–	86.7	69.6
[10]	88.2	–	55.6	46.1	–	–
[11]	–	110	–	–	16.4	11.1
[12]	–	79.2	–	–	19.9	22.1
[13]	87.7	–	63.2	43.5	–	–
[14]	–	93.5	–	–	47.2	49.4
[15]	–	98.2	–	–	45.1	51.7
[16]	–	84.8	–	–	13.9	12.9

Settings	drug sensitivity score
[17]	14.2
[18]	10.5
[19]	11.5
[20]	23.7
[21]	17.3
[22]	21.1
[23]	23.5
[24]	16.5

CCCC(CCC)C(=O)O [Valproic acid]
normalised viability [%]
Settings	3 nM	10 nM	30 nM	100 nM	1000 nM	10000 nM
[1]	–	113	–	–	124	121
[2]	–	78.7	–	–	93.1	86.2
[3]	–	104	–	–	104	93.9
[4]	99.9	–	97.9	109	–	–
[5]	104	–	95.1	96.5	–	–
[6]	86.4	–	84.7	96.6	–	–
[7]	88.6	–	81.7	76.3	–	–
[8]	–	110	–	–	104	94.4
[9]	–	97.4	–	–	90.7	82
[10]	124	–	116	122	–	–
[11]	–	110	–	–	140	127
[12]	–	109	–	–	101	116
[13]	112	–	102	109	–	–
[14]	–	105	–	–	117	121
[15]	–	103	–	–	87.2	97.3
[16]	–	102	–	–	107	95.9

Settings	drug sensitivity score
[17]	0
[18]	0
[19]	0
[20]	0
[21]	0
[22]	0
[23]	0
[24]	0

COc1ccc(C2=N[C@@H](c3ccc(Cl)cc3)[C@@H](c3ccc(Cl)cc3)N2C(=O)N2CCNC(=O)C2)c(OC(C)C)c1 [Nutlin-3]
normalised viability [%]
Settings	3 nM	10 nM	30 nM	100 nM	1000 nM	10000 nM
[1]	–	120	–	–	114	90.3
[2]	–	91.3	–	–	98.4	103
[3]	–	82.8	–	–	85.2	96.6
[4]	86	–	89.8	95.6	–	–
[5]	101	–	98.6	97.5	–	–
[6]	84.5	–	78.5	90.4	–	–
[7]	85.7	–	90.3	87.4	–	–
[8]	–	77.6	–	–	82.8	82.9
[9]	–	96.1	–	–	104	97.4
[10]	107	–	112	107	–	–
[11]	–	105	–	–	117	100
[12]	–	102	–	–	97.7	104
[13]	104	–	92	99.8	–	–
[14]	–	104	–	–	104	90.1
[15]	–	87.5	–	–	83.2	81.6
[16]	–	103	–	–	98.1	101

Settings	drug sensitivity score
[17]	0
[18]	0
[19]	0
[20]	0
[21]	0
[22]	0
[23]	0
[24]	0

C[C@@H]1C=C2C(=O)O[C@@H]3CC[C@H](C1)[C@]23O [Galiellalactone]
normalised viability [%]
Settings	15 nM	50 nM	150 nM	500 nM	5000 nM	50000 nM
[1]	–	131	–	–	98.9	27.4
[2]	–	83.9	–	–	59.9	7.58
[3]	–	88.6	–	–	89.9	83.8
[4]	99.7	–	108	103	–	–
[5]	108	–	104	102	–	–
[6]	95.8	–	90.5	108	–	–
[7]	103	–	92.2	95.5	–	–
[8]	–	90.8	–	–	104	86.9
[9]	–	95.2	–	–	89.8	67.5
[10]	108	–	96	116	–	–
[11]	–	121	–	–	115	50.9
[12]	–	100	–	–	61.4	7.78
[13]	114	–	91.2	98.4	–	–
[14]	–	101	–	–	80.4	33.6
[15]	–	90.6	–	–	95.5	40.4
[16]	–	105	–	–	85.2	6.84

Settings	drug sensitivity score
[17]	0
[18]	0
[19]	0
[20]	0
[21]	0
[22]	0
[23]	6.03
[24]	0

CCOc1cc2ncc(C#N)c(Nc3ccc(OCc4ccccn4)c(Cl)c3)c2cc1NC(=O)/C=C/CN(C)C [Neratinib]
normalised viability [%]
Settings	0.3 nM	1 nM	3 nM	10 nM	100 nM	1000 nM
[1]	–	105	–	–	120	91.2
[2]	–	93.7	–	–	82	93.8
[3]	–	95.7	–	–	76	82.7
[4]	86.6	–	78.6	93.9	–	–
[5]	92	–	90.5	93	–	–
[6]	92.7	–	100	97.1	–	–
[7]	103	–	95.4	101	–	–
[8]	–	97.1	–	–	91.9	84.5
[9]	–	108	–	–	106	90.1
[10]	123	–	115	106	–	–
[11]	–	98.6	–	–	88.5	93.9
[12]	–	114	–	–	131	135
[13]	106	–	99	88.3	–	–
[14]	–	110	–	–	114	106
[15]	–	99.2	–	–	87.7	91.6
[16]	–	107	–	–	95.8	114

Settings	drug sensitivity score
[17]	0
[18]	0
[19]	6.58
[20]	0
[21]	0
[22]	0
[23]	4.31
[24]	0.624

C[C@@]1(C(=O)Nc2ccc(F)nc2)CCCN1c1nc(Nc2cc(C3CC3)n[nH]2)c2cccn2n1
normalised viability [%]
Settings	3 nM	10 nM	30 nM	100 nM	1000 nM	10000 nM
[1]	–	109	–	–	87.6	82
[2]	–	97.8	–	–	77.6	34.4
[3]	–	94	–	–	63	21.1
[4]	88.5	–	99.1	95.1	–	–
[5]	99	–	97.4	84.9	–	–
[6]	92	–	75	87.9	–	–
[7]	97.3	–	91.7	83.8	–	–
[8]	–	105	–	–	64.1	45.6
[9]	–	92.5	–	–	55	54.1
[10]	120	–	82	73.5	–	–
[11]	–	114	–	–	75.8	38.1
[12]	–	90.6	–	–	46	31.4
[13]	100	–	84	105	–	–
[14]	–	115	–	–	61	40.7
[15]	–	88.5	–	–	52.6	25.3
[16]	–	99.1	–	–	71	56.4

Settings	drug sensitivity score
[17]	5.62
[18]	0
[19]	15.8
[20]	3.38
[21]	9.67
[22]	7.17
[23]	16.4
[24]	10.2

C#Cc1cccc(Nc2ncnc3cc(OC)c(OCCCCCCC(=O)NO)cc23)c1 [CUDC-101]
normalised viability [%]
Settings	3 nM	10 nM	30 nM	100 nM	1000 nM	10000 nM
[1]	–	108	–	–	28.2	3.84
[2]	–	90.3	–	–	64.6	9.13
[3]	–	82.3	–	–	38.3	9.22
[4]	90.4	–	89.8	85.2	–	–
[5]	117	–	108	105	–	–
[6]	89	–	75.5	91	–	–
[7]	84	–	84.7	80.8	–	–
[8]	–	78.3	–	–	32.8	11.6
[9]	–	78.8	–	–	28.6	16
[10]	98.9	–	93.3	71.5	–	–
[11]	–	91.3	–	–	38.2	5.55
[12]	–	87.8	–	–	46	3.42
[13]	99.7	–	67.3	65.3	–	–
[14]	–	100	–	–	25.5	8.4
[15]	–	75.1	–	–	20.4	2.11
[16]	–	75.5	–	–	16.8	2.82

Settings	drug sensitivity score
[17]	11.4
[18]	8.33
[19]	7.15
[20]	8.01
[21]	13.1
[22]	6.33
[23]	18.1
[24]	15
